Experimental data as given in PubChem BioAssay AID2060622 (Molecular Pharmacology Branch, DTP, NCI, 2025).
Values joined by “and” are separate entries in the source; they are usually repeats but may differ in a detail not shown here. Identical values can stand only once.

Tested on: 242566-281-R-J2-PDC complex spheroid viability
Assay: Anticancer human tumor 242566-281-R-J2-PDC patient-derived pancreatic carcinoma cell line growth inhibition [CLK]
Settings: for viability, T/C: stronger effect = lower value
From the text: A high-throughput screen of multi-cell type tumor spheroids was designed to identify active combinations of […] and targeted small molecules. Complex spheroids include a stromal component modeled by human endothelial cells (HUVEC) and fibroblasts modeled by human mesenchymal stem cells (MSCs). The concentration ranges selected for each drug and investigational agent were based upon clinically achievable concentrations if the clinical Cmax of the agent was known.
Compounds. The drugs and investigational agents: cirtuvivint (SM08502; NSC835563), CC-671 (NSC850746), vemurafenib (NSC761431), tapotoclax (NSC804041), sotorasib (NSC818433), adagrasib (NSC831453), MRTX-1133 (NSC836407), BAY2416964 (NSC825713), copanlisib (NSC816437), inavolisib (NSC800729), abemaciclib (NSC768073), osimertinib (NSC779217), entinostat (NSC756642), eltanexor (KPT-8602, NSC794443), venetoclax (NSC766270), ceralasertib (NSC777638), bortezomib (NSC756655), olaparib (NSC753686), talazoparib (NSC767125), alisertib (NSC759677), peposertib (NSC802822), gemcitabine (NSC613327), 5-fluorouracil (NSC19893), SN-38 (NSC673596), oxaliplatin (NSC266046), paclitaxel (NSC125973), and doxorubicin (NSC123127), were obtained from the National Cancer Institute (NCI) Developmental Therapeutics Program Chemical Repository. The FDA-approved anticancer drug set is available from the Developmental Therapeutics Program at https://dtp.cancer.gov/organization/dscb/obtaining/available plates.htm. […] The stock solutions were prepared in dimethyl sulfoxide (DMSO, Sigma-Aldrich, St. Louis, MO, cat. D2650), except for the platinum complexes which were prepared in saline (Quality Biological, Gaithersburg, MD, cat. 114-055-101), at 800-fold the tested concentration and stored at -70 degrees C prior to their use. All drugs and investigational agents were tested over a range starting from a high concentration at or near the clinical Cmax and decreasing in half-log increments. If the clinical Cmax for an agent had not been determined, the highest concentration tested was 10 microM.
Cell Culture. All cells were maintained in an incubator at 37 degrees C and 5% CO2 with 95% humidity. The PDC lines were cultured according to standard operating procedures established by the NCI PDMR. Briefly, all PDCs were thawed and cultured in Matrigel-coated flasks prepared with a working solution of 1X Ham's F-12 nutrient mix, without supplementation (Invitrogen, Waltham, MA, cat. 11765054), 100 U/mL penicillin-streptomycin (Invitrogen, cat. 15140122), and 2.5% Matrigel (Corning Inc., Corning, NY, cat. 354248) for the first three passages. The 947758-054-R-J2-PDC line was cultured in 6B/Colon 1A media, which includes advanced DMEM/F-12 (Thermo Fisher Scientific, cat. 12634028), 10 mM HEPES (Thermo Fisher Scientific, cat. 15630080), 1X GlutaMAX supplement (Thermo Fisher Scientific, cat. 35050061), 0.1 mg/mL primocin (InvivoGen, cat. ant-pm-2), 10% defined fetal bovine serum, heat inactivated (HyClone Laboratories Inc., cat. SH30070.03HI), 1.25 mM N-Acetyl-L-cysteine (Sigma-Aldrich, cat. A9165), 10 mM nicotinamide (Sigma-Aldrich, cat. N0636), 1X B-27 supplement (Thermo Fisher Scientific, cat. 17504044), 1X N-2 supplement (Thermo Fisher Scientific, cat. 17502048), and 10 microM Y-27632 dihydrochloride (Tocris Bioscience, cat. 1254). The 876862-298-R-J1-PDC was cultured in 6E media, which includes all 6B/Colon 1A media components plus 50% L-WRN conditioned media (ATCC, cat. CRL-3276), 50 ng/mL recombinant human EGF recombinant protein (hEGF; Thermo Fisher Scientific, cat. PHG0311), 10 ng/mL recombinant human fibroblast growth factor 10 (hGFG-10; PeproTech, cat. 100-26), 1 ng/mL recombinant human fibroblast growth factor 2 (hFGF-2; PeproTech, cat. 100-18B), and 1 µM prostaglandin E2 (PGE2; Tocris, cat. 2296). The 227483-062-R1-J1-PDC line was cultured in Panc media, containing all 6E components except hFGF-2, with the addition of 500 nM SB-431542 (Selleckchem, cat. S1067) and 10 nM gastrin (Tocris, cat. 3006). […]
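Note: spheroids exposed to compounds for 7 days before readout.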
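Throughout, for viability, T/C: 100% = DMSO vehicle control wells.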

Structure (SMILES)	IC50 (curve of compound)	viability, T/C (compound 0.0316 µM)	viability, T/C (compound 0.1 µM)	viability, T/C (compound 0.316 µM)	viability, T/C (compound 1 µM)	viability, T/C (compound 3.16 µM)	viability, T/C (compound 10 µM)	viability, T/C (compound 0.00316 µM)	viability, T/C (compound 0.01 µM)	other results
C#Cc1c(F)ccc2cc(O)cc(-c3ncc4c(N5CC6CCC(C5)N6)nc(OCC56CCCN5CC(F)C6)nc4c3F)c12 (centres undefined)		104% and 67.3%	90.1% and 49.6%	76.2% and 43.3%	58.3% and 26.4%	48.6% and 26%	40% and 21.3%			
C=CC(=O)N1CCN(c2nc(=O)n(-c3c(C)ccnc3C(C)C)c3nc(-c4c(O)cccc4F)c(F)cc23)C(C)C1 (centres undefined)	> 10000 nM	95.5% and 104%	80.4% and 92.4%	78.5% and 103%	104% and 90.6%	102% and 88.7%	70.8% and 77.6%			
CC(C)CC(NC(=O)C(Cc1ccccc1)NC(=O)c1cnccn1)B(O)O (centres undefined)	2.48 nM and 4.67 nM									viability, T/C (compound 0.000949 µM): 99.7% and 88.2%; viability, T/C (compound 0.003 µM): 40% and 80.3%; viability, T/C (compound 0.00949 µM): 1.73% and 1.58%; viability, T/C (compound 0.03 µM): 0.47% and 0.59%; viability, T/C (compound 0.0949 µM): 0.33% and 0.52%; viability, T/C (compound 0.3 µM): 0.18% and 0.32%
CCN1CCN(Cc2ccc(Nc3ncc(F)c(-c4cc(F)c5nc(C)n(C(C)C)c5c4)n3)nc2)CC1	> 1000 nM	90.6% and 95.6%	103% and 89%	118% and 100%	132% and 152%			102% and 83%	102% and 94.6%	
CCc1c2c(nc3ccc(O)cc13)-c1cc3c(c(=O)n1C2)COC(=O)[C@]3(O)CC	13.4 nM and 16.9 nM	30.8% and 39%	12.3% and 15.7%	5.72% and 5.99%	2.95% and 2.38%			87.2% and 108%	56.3% and 60%	
CN1CCN(c2cc(C(=O)Nc3cc4cc(-c5cnn(C)c5)ccc4cn3)ccn2)CC1		101% [middle of 12 runs]	90.2% [middle of 12 runs]		4.87% [middle of 12 runs]	7.54% [middle of 12 runs]	1.65% [middle of 11 runs]			IC50 (compound alone, run of 07/31/2023): 230 nM [middle of 12 runs]
COC1C=CCC(C)C(C)S(=O)(=O)NC(=O)c2ccc3c(c2)N(CC2CCC21)CC1(CCCc2cc(Cl)ccc21)CO3 (centres undefined)	5740 nM and 6430 nM	91.1% and 108%	69.8% and 78.5%	82.5% and 70.2%	92.6% and 93.4%	82.5% and 81.2%	19.6% and 30.2%			
Cn1ncnc1[C@H]1c2n[nH]c(=O)c3cc(F)cc(c23)N[C@@H]1c1ccc(F)cc1	> 100 nM	96.3% and 95.3%	87.1% and 99.8%					111% and 107%	107% and 91%	viability, T/C (compound 0.000316 µM): 106% and 93.2%; viability, T/C (compound 0.001 µM): 93.8% and 102%
NC(=O)C(=Cn1cnc(-c2cc(C(F)(F)F)cc(C(F)(F)F)c2)n1)c1cncnc1	1190 nM and > 3000 nM									viability, T/C (compound 0.00949 µM): 108% and 96.6%; viability, T/C (compound 0.03 µM): 103%; viability, T/C (compound 0.0949 µM): 99.7% and 142%; viability, T/C (compound 0.3 µM): 99% and 152%; viability, T/C (compound 0.949 µM): 55.8% and 101%; viability, T/C (compound 3 µM): 25.7% and 58.9%

Second part, led by results:

IC50 (curve of compound)	Structure (SMILES)	viability, T/C (compound 0.0316 µM)	viability, T/C (compound 0.1 µM)	viability, T/C (compound 0.316 µM)	viability, T/C (compound 1 µM)	viability, T/C (compound 3.16 µM)	viability, T/C (compound 10 µM)	viability, T/C (compound 0.00316 µM)	viability, T/C (compound 0.01 µM)	other results
5350 nM and 5000 nM	C=C(F)C(=O)N1CCN(c2nc(OCC3CCCN3C)nc3c2CCN(c2cccc4cccc(Cl)c24)C3)CC1CC#N (centres undefined)	88.1% and 109%	81.2% and 96.7%	70.4% and 103%	116% and 111%	103% and 83%	0.27% and 0.16%			
> 300 nM	C=CC(=O)Nc1cc(Nc2nccc(-c3cn(C)c4ccccc34)n2)c(OC)cc1N(C)CCN(C)C									viability, T/C (compound 0.000949 µM): 98.9% and 87.5%; viability, T/C (compound 0.003 µM): 97.1% and 95.4%; viability, T/C (compound 0.00949 µM): 94.8% and 88.7%; viability, T/C (compound 0.03 µM): 95.2% and 96.2%; viability, T/C (compound 0.0949 µM): 95.1% and 107%; viability, T/C (compound 0.3 µM): 69.7% and 97.1%
5960 nM and 5640 nM	CCCS(=O)(=O)Nc1ccc(F)c(C(=O)c2c[nH]c3ncc(-c4ccc(Cl)cc4)cc23)c1F	109% and 86.7%	104% and 98.7%	94% and 81.7%	106% and 86%	104% and 115%	6.44% and 6.7%			
25.8 nM and 43.2 nM	COc1c(OCCCN2CCOCC2)ccc2c3n(c(=NC(=O)c4cnc(N)nc4)nc12)CCN3	44.2% and 56.4%	21.8% and 30.8%	12.3% and 19.2%	6.02% and 16.4%			86.1% and 72.8%	73.2% and 74.1%	
